Reference: the supplement of paper PMC10307832

Assays:
Experiment in all cases: relative viability (nuclei count vs DMSO), 5 days (fraction); higher = more cells survive
YM155 + Tozasertib = compound: COCC[n+]1c2c(n(Cc3cnccn3)c1C)C(=O)c1ccccc1C2=O [YM155] + Cc1cc(Nc2cc(N3CCN(C)CC3)nc(Sc3ccc(NC(=O)C4CC4)cc3)n2)n[nH]1 [Tozasertib] (partner 0.1 µM)
Summary of the method: (§1)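 Relative viability is defined as nuclei in treated wells over nuclei in vehicle wells. Duplicate plates were run and medians reported. Lung cancer cell lines in 1536-well plates were dosed by pin tool one day after seeding, with one drug or with a fixed anchor-drug dose plus five library-drug doses (not always all listed) in √10 steps, and nuclei were counted after 5 days.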

Quizartinib + Lapatinib = compound: CC(C)(C)c1cc(NC(=O)Nc2ccc(-c3cn4c(n3)sc3cc(OCCN5CCOCC5)ccc34)cc2)no1 [Quizartinib] + CS(=O)(=O)CCNCc1ccc(-c2ccc3ncnc(Nc4ccc(OCc5cccc(F)c5)c(Cl)c4)c3c2)o1 [Lapatinib] (partner 2 µM)
Summary of the method: as §1

Quizartinib + Olaparib = compound: CC(C)(C)c1cc(NC(=O)Nc2ccc(-c3cn4c(n3)sc3cc(OCCN5CCOCC5)ccc34)cc2)no1 [Quizartinib] + O=C(c1cc(Cc2n[nH]c(=O)c3ccccc23)ccc1F)N1CCN(C(=O)C2CC2)CC1 [Olaparib] (partner 8 µM)
Summary of the method: as §1

YM155 + Decitabine = compound: COCC[n+]1c2c(n(Cc3cnccn3)c1C)C(=O)c1ccccc1C2=O [YM155] + Nc1ncn([C@H]2C[C@H](O)[C@@H](CO)O2)c(=O)n1 [Decitabine] (partner 2 µM)
Summary of the method: as §1

| Cell Line | relative viability (YM155 + Tozasertib; first compound 0.002 µM) | relative viability (YM155 + Tozasertib; first compound 0.006325 µM) | relative viability (YM155 + Tozasertib; first compound 0.02 µM) | relative viability (YM155 + Tozasertib; first compound 0.06325 µM) | relative viability (Quizartinib + Lapatinib; first compound 0.001 µM) | relative viability (Quizartinib + Lapatinib; first compound 0.003162 µM) | relative viability (Quizartinib + Lapatinib; first compound 0.01 µM) | relative viability (Quizartinib + Lapatinib; first compound 0.03162 µM) | relative viability (Quizartinib + Lapatinib; first compound 0.1 µM) | relative viability (Quizartinib + Olaparib; first compound 0.001 µM) | relative viability (Quizartinib + Olaparib; first compound 0.003162 µM) | relative viability (Quizartinib + Olaparib; first compound 0.01 µM) | relative viability (Quizartinib + Olaparib; first compound 0.03162 µM) | relative viability (Quizartinib + Olaparib; first compound 0.1 µM) | relative viability (YM155 + Decitabine; first compound 0.002 µM) | relative viability (YM155 + Decitabine; first compound 0.006325 µM) | relative viability (YM155 + Decitabine; first compound 0.02 µM) | relative viability (YM155 + Decitabine; first compound 0.06325 µM) |
| --- | --- | --- | --- | --- | --- | --- | --- | --- | --- | --- | --- | --- | --- | --- | --- | --- | --- | --- |
| H3255 | 0.68 | 0.59 | 0.616 | 0.351 | 0.264 | 0.238 | 0.212 | 0.28 | 0.241 | 0.516 | 0.552 | 0.565 | 0.525 | 0.57 | 0.533 | 0.645 | 0.622 | 0.558 |
| NCI-H2228 | 0.265 | 0.26 | 0.213 | 0.316 | 1.11 | 1.1 | 1.47 | 0.764 | 1 | 0.696 | 0.729 | 1.02 | 0.707 | 0.807 | – | – | – | – |
| EBC-1 | – | – | – | – | 0.23 | 0.209 | 0.202 | 0.207 | 0.197 | 0.732 | 0.68 | 0.803 | 0.626 | 0.754 | – | – | – | – |
| IA-LM | – | – | – | – | 0.983 | 0.718 | 0.86 | – | 0.719 | 0.908 | 0.796 | 0.851 | 0.75 | 0.74 | – | – | – | – |
| NCI-H522 | 0.522 | 0.557 | 0.599 | 0.582 | – | – | – | – | – | 0.61 | 0.764 | 0.716 | 0.6 | 0.783 | 0.72 | 0.664 | 0.684 | 0.668 |
| LCLC-103H | 0.569 | 0.454 | 0.464 | 0.487 | – | – | – | – | – | 0.691 | 0.718 | 0.789 | 0.769 | 0.819 | 0.747 | 0.735 | 0.731 | 0.716 |
| NCI-H1792 | – | – | – | – | 0.796 | 0.853 | 0.969 | 0.866 | 0.932 | 0.443 | 0.381 | 0.54 | 0.483 | 0.312 | 0.453 | 0.514 | 0.6 | 0.566 |
| A549 | – | – | – | – | 0.919 | 0.912 | 0.998 | 0.59 | 0.99 | – | 0.327 | 0.378 | 0.257 | 0.439 | 0.413 | 0.215 | 0.29 | 0.24 |
| NCI-H1623 | 0.434 | 0.461 | 0.431 | 0.425 | – | – | – | – | – | – | – | – | – | – | – | – | – | – |
| NCI-H1563 | – | – | – | – | 0.697 | 0.824 | 0.935 | – | 0.897 | – | – | – | – | – | – | – | – | – |
| Calu-6 | – | – | – | – | 1.02 | 0.986 | 1.15 | 0.815 | 1.09 | 0.604 | 0.549 | 0.512 | 0.492 | 0.64 | – | – | – | – |
| ChaGo-K-1 | 0.22 | 0.208 | 0.24 | 0.236 | – | – | – | – | – | – | 0.415 | 0.463 | 0.45 | 0.447 | 0.473 | 0.563 | 0.515 | 0.545 |
| NCI-H441 | 0.559 | 0.63 | 0.645 | 0.467 | – | – | – | – | – | 0.441 | 0.558 | 0.646 | 0.434 | 0.683 | 0.277 | 0.243 | 0.248 | 0.189 |
